Measured values published in publication PMC8219408, “Switching Cytolytic Nanopores into Antimicrobial Fractal Ruptures by a Single Side Chain Mutation” (ACS nano, 2021).
Converted amounts (≈) assume the structure as drawn. Like-named read-outs stand apart in the source and are kept apart here. Bridge positions count the residues as written; N and C are the ends. Square brackets hold non-standard residues; d marks the D form. Peptide text beside a SMILES is read from it. * marks the point of attachment. X1 = CC[C@H](C)CCCCC(=O)*; Dab = NCC[C@H](N)C(=O)O

Legend:
Human erythrocytes = test: Hemolysis assay; assay type: cell-based
Procedure: For hemolysis measurements 10% (vol/vol) suspensions of human erythrocytes with peptides were used. Phosphate buffer saline (PBS, 10 mM, pH 7.2) was used to rinse human red blood cells (4x) using repeated centrifugation and re-suspension (3 min, 3000 × g). The cells were incubated for 1 h at room temperature in deionized water (fully hemolysed control), with peptide in PBS or just PBS, which was followed by centrifugation (5 min, 10000 × g). The obtained supernatant was then separated from the pellet, and absorbance (550 nm) was measured in a SpectraMax i3x multi-mode microplate reader (Molecular Devices). Absorbance obtained for the suspension that was treated with deionized water gave complete (100%) hemolysis. Table S1 summarises the results, with the values corresponding to % hemolysis for peptide at 250 μM. All tests were performed in triplicate.

[1] = biological target: DLPC/DLPG (3:1 molar ratio) unilamellar vesicles; test: Isothermal titration calorimetry, anionic vesicles; settings: ITC, peptide (500 μM) titrated into DLPC/DLPG (3:1) vesicles (380 μM total lipid), 25 °C, one-set binding model, duplicate; read-out: dissociation constant (KD)
Procedure: The lipids used for the assembly of unilamellar vesicles were from Avanti Polar Lipids: 1,2-dilauroylphosphatidylcholine (DLPC) was used for zwitterionic vesicles, while its mixture with 1,2-dilauroyl-sn-glycero-3-phospho-(1’-rac-glycerol) (DLPG) at a 3:1 molar ratio was used for anionic vesicles. After weighting up the lipid aliquots were dissolved in chloroform and dried under a nitrogen stream until a thin film was formed. The obtained film was subjected to hydration in 10 mM phosphate buffer (pH 7.4), which was followed by vortexing (1x, 2 min) and sonication (1x, 30 min). A hand-held extruder (Avanti Polar lipids) was used to extrude the resulting suspension (29x, polycarbonate filter, 0.05 μm) until a clear solution containing small unilamellar vesicles (SUV) was obtained. The SUVs were then analysed (50 nm) using a Zetasizer Nano (ZEN3600, Malvern Instruments, UK) and re-suspended to a final concentration of 1 mg/mL. The measurements were performed using a low volume disposable cuvette at 25°C. […]
A Microcal isothermal titration calorimeter-200 (ITC-200) was used to carry out all ITC experiments. […] Binding isotherms were recorded for peptides (500 μM) titrated into unilamellar phospholipid vesicles (380 μM, total lipid) in the cell. […]

S. typhimurium (6192) = assay type: cell-based
Procedure: (§1) MIC values were obtained using broth microdilution against different bacteria following the protocols by Clinical and Laboratory Standards Institute. Specifically, each bacterium (100 μL of 0.5–1 × 10^6 CFU per ml) in Mueller Hinton media broth (Oxoid) was incubated in 96-well microtiter plates at 37 °C on a 3D orbital shaker. 100 μL of serial twofold peptide dilutions (from 100 to 0 μM) were used. Following peptide addition, absorbance (600 nm) was measured in a SpectraMax i3x multi-mode microplate reader (Molecular Devices). The lowest peptide concentrations inhibiting visible bacterial growth after 24 h at 37 °C was defined as MICs. All tests were performed in triplicate.

[2] = system: P. aeruginosa (ATCC 27853); assay type: cell-based
Procedure: as §1

M. luteus (ATCC 49732) = assay type: cell-based
Procedure: as §1

S. aureus (ATCC 6538) = assay type: cell-based
Procedure: as §1

B. subtilis (ATCC 6633) = assay type: cell-based
Procedure: as §1

[3] = system: K. pneumoniae (NCTC 5055); assay type: cell-based
Procedure: as §1

E. coli (ATCC 15597) = assay type: cell-based
Procedure: as §1

[4] = K. pneumoniae (NCTC 5055), broth microdilution (CLSI), Mueller Hinton broth, 24 h at 37 °C, triplicate

Kd [1] [µM] | SMILES | % hemolysis, at 250 μM (Human erythrocytes; 250 µM, pH 7.2) [%] | Minimum inhibitory concentration (S. typhimurium (6192); 6192, 24 h) [µM] | Minimum inhibitory concentration ([2]; ATCC 27853, 24 h) [µM] | Minimum inhibitory concentration (M. luteus (ATCC 49732); ATCC 49732, 24 h) [µM] | Minimum inhibitory concentration (S. aureus (ATCC 6538); ATCC 6538, 24 h) [µM] | Minimum inhibitory concentration (B. subtilis (ATCC 6633); ATCC 6633, 24 h) [µM] | Minimum inhibitory concentration ([3]; NCTC 5055, 24 h) [µM] | Minimum inhibitory concentration (E. coli (ATCC 15597); ATCC 15597, 24 h) [µM] | hemolytic activity (in words) (Human erythrocytes) | Minimum inhibitory concentration [3, 4] [µM] | % hemolysis, at 250 μM (Human erythrocytes; peptide at 250 μM, 10% (vol/vol) human erythrocytes in PBS pH 7.2, 1 h at room temperature, absorbance 550 nm, deionized water = 100%, triplicate) [%] | Minimum inhibitory concentration (S. typhimurium (6192); S. typhimurium (6192), broth microdilution (CLSI), Mueller Hinton broth, 24 h at 37 °C, triplicate) [µM] | Minimum inhibitory concentration ([2]; P. aeruginosa (ATCC 27853), broth microdilution (CLSI), Mueller Hinton broth, 24 h at 37 °C, triplicate) [µM] | Minimum inhibitory concentration (M. luteus (ATCC 49732); M. luteus (ATCC 49732), broth microdilution (CLSI), Mueller Hinton broth, 24 h at 37 °C, triplicate) [µM] | Minimum inhibitory concentration (S. aureus (ATCC 6538); S. aureus (ATCC 6538), broth microdilution (CLSI), Mueller Hinton broth, 24 h at 37 °C, triplicate) [µM] | Minimum inhibitory concentration (B. subtilis (ATCC 6633); B. subtilis (ATCC 6633), broth microdilution (CLSI), Mueller Hinton broth, 24 h at 37 °C, triplicate) [µM] | Minimum inhibitory concentration (E. coli (ATCC 15597); E. coli (ATCC 15597), broth microdilution (CLSI), Mueller Hinton broth, 0.5–1 × 10^6 CFU per ml, 24 h at 37 °C, absorbance 600 nm, triplicate) [µM]
0.17 | CC(C)C[C@H](NC(=O)[C@H](CCCNC(=N)N)NC(=O)[C@H](CC(C)C)NC(=O)[C@H](C)NC(=O)[C@H](CC(C)C)NC(=O)[C@H](CCCNC(=N)N)NC(=O)[C@H](CC(C)C)NC(=O)[C@H](CC(C)C)NC(=O)[C@@H](N)CCCNC(=N)N)C(N)=O [bienA9] (H-RLLRLALRL-NH2; N-terminus assumed) | 25 | 50 (≈ 56.1 µg/mL) | 50 (≈ 56.1 µg/mL) | 1.5 (≈ 1.68 µg/mL) | 25 (≈ 28.1 µg/mL) | 6 (≈ 6.73 µg/mL) | 50 (≈ 56.1 µg/mL) | 6 (≈ 6.73 µg/mL) |  |  |  |  |  |  |  |  | 
 | CC(C)C[C@H](NC(=O)[C@H](CC(C)C)NC(=O)[C@H](CCCNC(=N)N)NC(=O)[C@H](CC(C)C)NC(=O)[C@H](C)NC(=O)[C@H](CC(C)C)NC(=O)[C@H](CCCNC(=N)N)NC(=O)[C@H](CC(C)C)NC(=O)[C@H](CC(C)C)NC(=O)[C@@H](N)CCCNC(=N)N)C(N)=O [bienA10] (H-RLLRLALRLL-NH2; N-terminus assumed) | 25 | 6 (≈ 7.41 µg/mL) | 25 (≈ 30.9 µg/mL) | 1.5 (≈ 1.85 µg/mL) | 3 (≈ 3.71 µg/mL) | 1.5 (≈ 1.85 µg/mL) | 3 (≈ 3.71 µg/mL) | 3 (≈ 3.71 µg/mL) |  |  |  |  |  |  |  |  | 
 | CC(C)C[C@H](NC(=O)[C@H](C)NC(=O)[C@H](CC(C)C)NC(=O)[C@H](CCCNC(=N)N)NC(=O)[C@H](CC(C)C)NC(=O)[C@H](CC(C)C)NC(=O)[C@@H](N)CCCNC(=N)N)C(=O)N[C@@H](CCCNC(=N)N)C(=O)N[C@@H](CC(C)C)C(=O)N[C@@H](CC(C)C)C(=O)N[C@@H](CCCNC(=N)N)C(N)=O [bienA11] (H-RLLRLALRLLR-NH2; N-terminus assumed) | 25 | 12 (≈ 16.7 µg/mL) | 3 (≈ 4.18 µg/mL) | 1.5 (≈ 2.09 µg/mL) | 3 (≈ 4.18 µg/mL) | 6 (≈ 8.35 µg/mL) | 6 (≈ 8.35 µg/mL) | 3 (≈ 4.18 µg/mL) | hemolytic |  |  |  |  |  |  |  | 
2.12 | CC(C)C[C@H](NC(=O)[C@H](CCCNC(=N)N)NC(=O)[C@H](CC(C)C)NC(=O)[C@H](CCCCN)NC(=O)[C@H](CC(C)C)NC(=O)[C@H](CCCNC(=N)N)NC(=O)[C@H](CC(C)C)NC(=O)[C@H](CC(C)C)NC(=O)[C@@H](N)CCCNC(=N)N)C(N)=O [bienK9] (H-RLLRLKLRL-NH2; N-terminus assumed) | 0 | 50 (≈ 59 µg/mL) | 6 (≈ 7.08 µg/mL) | 1.5 (≈ 1.77 µg/mL) | 12 (≈ 14.2 µg/mL) | 3 (≈ 3.54 µg/mL) | > 50 | 3 (≈ 3.54 µg/mL) |  |  |  |  |  |  |  |  | 
 | CC(C)C[C@H](NC(=O)[C@H](CC(C)C)NC(=O)[C@H](CCCNC(=N)N)NC(=O)[C@H](CC(C)C)NC(=O)[C@H](CCCCN)NC(=O)[C@H](CC(C)C)NC(=O)[C@H](CCCNC(=N)N)NC(=O)[C@H](CC(C)C)NC(=O)[C@H](CC(C)C)NC(=O)[C@@H](N)CCCNC(=N)N)C(N)=O [bienK10] (H-RLLRLKLRLL-NH2; N-terminus assumed) | 0 | 50 (≈ 64.6 µg/mL) | 25 (≈ 32.3 µg/mL) | 1.5 (≈ 1.94 µg/mL) | 25 (≈ 32.3 µg/mL) | 6 (≈ 7.76 µg/mL) | > 50 | 3 (≈ 3.88 µg/mL) |  |  |  |  |  |  |  |  | 
 | CC(C)C[C@H](NC(=O)[C@H](CC(C)C)NC(=O)[C@H](CCCNC(=N)N)NC(=O)[C@H](CC(C)C)NC(=O)[C@H](CCCCN)NC(=O)[C@H](CC(C)C)NC(=O)[C@H](CCCNC(=N)N)NC(=O)[C@H](CC(C)C)NC(=O)[C@H](CC(C)C)NC(=O)[C@@H](N)CCCNC(=N)N)C(=O)N[C@@H](CCCNC(=N)N)C(N)=O [bienK11] (H-RLLRLKLRLLR-NH2) | 0 | 50 (≈ 72.4 µg/mL) | 12 (≈ 17.4 µg/mL) | 1.5 (≈ 2.17 µg/mL) | 12 (≈ 17.4 µg/mL) | 3 (≈ 4.35 µg/mL) | > 50 | 3 (≈ 4.35 µg/mL) | non-hemolytic |  |  |  |  |  |  |  | 
 | CC[C@H](C)[C@H](NC(=O)CN)C(=O)NCC(=O)N[C@@H](C)C(=O)N[C@H](C(=O)N[C@@H](CC(C)C)C(=O)N[C@@H](CCCCN)C(=O)N[C@H](C(=O)N[C@@H](CC(C)C)C(=O)N[C@H](C(=O)N[C@H](C(=O)NCC(=O)N[C@@H](CC(C)C)C(=O)N1CCC[C@H]1C(=O)N[C@@H](C)C(=O)N[C@@H](CC(C)C)C(=O)N[C@H](C(=O)N[C@@H](CO)C(=O)N[C@@H](Cc1c[nH]c2ccccc12)C(=O)N[C@H](C(=O)N[C@@H](CCCCN)C(=O)N[C@@H](CCCNC(=N)N)C(=O)N[C@@H](CCCCN)C(=O)N[C@@H](CCCNC(=N)N)C(=O)N[C@@H](CCC(N)=O)C(=O)N[C@@H](CCC(N)=O)C(N)=O)[C@@H](C)CC)[C@@H](C)CC)[C@@H](C)O)[C@@H](C)O)C(C)C)C(C)C [melittin, reference compound] |  |  |  |  |  |  |  |  |  | 3 (≈ 8.54 µg/mL) |  |  |  |  |  |  | 
 | CC[C@H](C)CCCCC(=O)N[C@@H](CCN)C(=O)N[C@H](C(=O)N[C@@H](CCN)C(=O)N[C@H]1CCNC(=O)[C@H]([C@@H](C)O)NC(=O)[C@H](CCN)NC(=O)[C@H](CCN)NC(=O)[C@H](CC(C)C)NC(=O)[C@@H](Cc2ccccc2)NC(=O)[C@H](CCN)NC1=O)[C@@H](C)O [polymyxin B, reference compound] (X1-[Dab]T[Dab][Dab][Dab][dF]L[Dab][Dab]T; lactam 4-C (inferred); N-terminus assumed) |  |  |  |  |  |  |  |  |  | 3 (≈ 3.61 µg/mL) | 5 | 1.5 (≈ 1.81 µg/mL) | 1.5 (≈ 1.81 µg/mL) | 1.5 (≈ 1.81 µg/mL) | 25 (≈ 30.1 µg/mL) | 3 (≈ 3.61 µg/mL) | 1.5 (≈ 1.81 µg/mL)
